# pIC50: −log10 of the molar value.
# What was measured:
# [1] = biological target: T1, RutR (RutR-His6; YcdC) (Escherichia coli, UniProt P0ACU2); format: binding; details: read-out: % inhibition at 100 μM
# T1 sequence (P0ACU2 1-212): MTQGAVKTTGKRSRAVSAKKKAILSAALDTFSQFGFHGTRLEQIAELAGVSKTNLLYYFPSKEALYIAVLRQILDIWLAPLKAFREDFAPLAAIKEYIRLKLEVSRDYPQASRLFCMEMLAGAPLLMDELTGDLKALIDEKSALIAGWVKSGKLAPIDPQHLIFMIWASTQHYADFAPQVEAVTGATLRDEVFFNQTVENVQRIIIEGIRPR
# [2] = biological target: T1, RutR (RutR-His6; YcdC); experiment: EMSA, inhibition of RutR binding to […]-labelled carP1
Compound,inhibition at 100 µM [1],pIC50 [2]
Cc1c[nH]c(=O)[nH]c1=O [thymine],~50%,–
O=c1cc[nH]c(=O)[nH]1 [uracil],–,~7.00

# Source: publication PMC2952853 (Nucleic Acids Research, 2010)
